Test results as given in patent US20250296953A1, “3,4-THIAZOLO-STEROIDS AND METHODS OF MAKING AND USING THE SAME” (Arkansas State University - Jonesboro, priority 2018, published 2025).

How the values were obtained:
SR = assay: NCI 60 five dose screen; settings: for GI50 / CC50: Homo sapiens, SR; for CC50: read-out: LC50; for TGI: SR (Leukemia), five dose
SK-MEL-25 = assay: Melanoma cytotoxicity assay (resazurin); assay type: cell-based; settings: SK-MEL-25 melanoma cells, 24 hours with compound, resazurin; concentration not given
Outline: (§1)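 About 4000 cells per well were seeded and held 24 h at 37° C, 5% CO2, then exposed to compounds in triplicate for 24 h. Resazurin was added for 6 h and fluorescence read at 544/590 nm; IC50 came from sigmoidal fits of viability versus concentration.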

SK-MEL-28 = assay: Melanoma cytotoxicity assay (resazurin); assay type: cell-based; settings: SK-MEL-28 melanoma cells, 24 hours with compound, resazurin; concentration not given
Outline: as §1

[1] = test system: 60 different human tumor cell lines; assay: NCI Development Therapeutics Program 60 cell line screen, one dose; assay type: cell-based
SF-539 = assay: NCI 60 one dose screen; assay type: cell-based, human; settings: one dose; CNS Cancer; SF-539
[2] = Non-small Cell Lung Cancer, A549/ATCC
[3] = Non-small Cell Lung Cancer, EKVX
[4] = Non-small Cell Lung Cancer, HOP-62
[5] = Non-small Cell Lung Cancer, HOP-92
[6] = Non-small Cell Lung Cancer, NCI-H23
[7] = Non-small Cell Lung Cancer, NCI-H226
[8] = Non-small Cell Lung Cancer, NCI-H322M
[9] = Non-small Cell Lung Cancer, NCI-H460

C[C@]12CCc3sc(NCCc4ccccc4)nc3C1=CC[C@@H]1[C@@H]2CC[C@]2(C)C(=O)CC[C@@H]12 [IIa.2, (1S,2R,13R,14S,18S)-2,18-dimethyl-7-(2-phenylethylamino)-6-thia-8-azapentacyclo [11.7.0.02,10.05,9.014,18]icosa-5(9),7,10-trien-17-one]
GI50 (SR): 3.07 µM | CC50 (SR): > 100 µM | TGI (SR): >1.00E−4 | SK-MEL-25 (% inhibition) (SK-MEL-25): 59% | SK-MEL-28 (% inhibition) (SK-MEL-28): 79% | Growth Percent ([1]; Breast Cancer, BT-549): 60.37% | Growth Percent ([1]; Breast Cancer, HS 578T): 75.51% | Growth Percent ([1]; Breast Cancer, MCF7): 20.41% | Growth Percent ([1]; Breast Cancer, MDA-MB-231/ATCC): 83.12% | Growth Percent ([1]; Breast Cancer, MDA-MB-468): 32.92% | Growth Percent ([1]; Breast Cancer, T-47D): 75.21% | Growth Percent ([1]; CNS Cancer, SF-268): 83.93% | Growth Percent ([1]; CNS Cancer, SNB-19): 80.20% | Growth Percent ([1]; CNS Cancer, SNB-75): 85.55% | Growth Percent ([1]; CNS Cancer, U251): 60.12% | Growth Percent ([1]; Colon Cancer, COLO 205): 90.61% | Growth Percent ([1]; Colon Cancer, HCC-2998): 105.58% | Growth Percent ([1]; Colon Cancer, HCT-116): 21.16% | Growth Percent ([1]; Colon Cancer, HT29): 34.29% | Growth Percent ([1]; Colon Cancer, KM12): 74.67% | Growth Percent ([1]; Colon Cancer, SW-620): 35.34% | Growth Percent ([1]; Leukemia, CCRF-CEM): 8.44% | Growth Percent ([1]; Leukemia, HL-60(TB)): 1.45% | Growth Percent ([1]; Leukemia, K-562): 5.14% | Growth Percent ([1]; Leukemia, MOLT-4): 4.71% | Growth Percent ([1]; Leukemia, RPMI-8226): −5.28% | Growth Percent ([1]; Leukemia, SR): 0.92% | Growth Percent ([1]; Melanoma, LOX IMVI): 70.22% | Growth Percent ([1]; Melanoma, M14): 85.36% | Growth Percent ([1]; Melanoma, MALME-3M): 73.32% | Growth Percent ([1]; Melanoma, MDA-MB-435): 58.12% | Growth Percent ([1]; Melanoma, SK-MEL-2): 92.09% | Growth Percent ([1]; Melanoma, SK-MEL-5): 65.96% | Growth Percent ([1]; Melanoma, SK-MEL-28): 83.31% | Growth Percent ([1]; Melanoma, UACC-62): 75.59% | Growth Percent ([1]; Melanoma, UACC-257): 87.36% | Growth Percent [1, 2]: 87.76% | Growth Percent [1, 3]: 92.45% | Growth Percent [1, 4]: 101.67% | Growth Percent [1, 5]: 66.42% | Growth Percent [1, 6]: 66.61% | Growth Percent [1, 7]: 84.07% | Growth Percent [1, 8]: 91.89% | Growth Percent [1, 9]: 72.80% | Growth Percent ([1]; Ovarian Cancer, IGROV1): 87.98% | Growth Percent ([1]; Ovarian Cancer, NCI/ADR-RES): 70.16% | Growth Percent ([1]; Ovarian Cancer, OVCAR-3): 6.41% | Growth Percent ([1]; Ovarian Cancer, OVCAR-4): 74.22% | Growth Percent ([1]; Ovarian Cancer, OVCAR-5): 100.34% | Growth Percent ([1]; Ovarian Cancer, OVCAR-8): 72.09% | Growth Percent ([1]; Ovarian Cancer, SK-OV-3): 111.53% | Growth Percent ([1]; Prostate Cancer, DU-145): 33.94% | Growth Percent ([1]; Prostate Cancer, PC-3): 38.82% | Growth Percent ([1]; Renal Cancer, 786-0): 4.36% | Growth Percent ([1]; Renal Cancer, A498): 86.92% | Growth Percent ([1]; Renal Cancer, ACHN): 73.78% | Growth Percent ([1]; Renal Cancer, CAKI-1): 73.48% | Growth Percent ([1]; Renal Cancer, RXF 393): 20.01% | Growth Percent ([1]; Renal Cancer, SN12C): 68.49% | Growth Percent ([1]; Renal Cancer, TK-10): 91.34% | Growth Percent ([1]; Renal Cancer, UO-31): 50.44% | Growth Percent (SF-539): 64.79%

C[C@]12CCc3sc(Nc4ccc(OC(F)(F)F)cc4)nc3C1=CC[C@@H]1[C@@H]2CC[C@]2(C)C(=O)CC[C@@H]12 [IIa.19, (1S,2R,13R,14S,18S)-2,18-dimethyl-7-[4-(trifluoromethoxy)anilino]-6-thia-8-azapentacyclo[11.7.0.02,10.05,9.014,18]icosa-5(9),7,10-trien-17-one]
GI50 (SR): 2.74 µM | CC50 (SR): > 100 µM | TGI (SR): >1.00E−4 | SK-MEL-25 (% inhibition) (SK-MEL-25): 24% | SK-MEL-28 (% inhibition) (SK-MEL-28): 97% | Growth Percent ([1]; Breast Cancer, BT-549): 53.50% | Growth Percent ([1]; Breast Cancer, HS 578T): 38.46% | Growth Percent ([1]; Breast Cancer, MCF7): 17.08% | Growth Percent ([1]; Breast Cancer, MDA-MB-231/ATCC): 73.45% | Growth Percent ([1]; Breast Cancer, MDA-MB-468): 69.12% | Growth Percent ([1]; Breast Cancer, T-47D): 41.82% | Growth Percent ([1]; CNS Cancer, SF-268): 68.55% | Growth Percent ([1]; CNS Cancer, SNB-19): 56.49% | Growth Percent ([1]; CNS Cancer, SNB-75): 68.60% | Growth Percent ([1]; CNS Cancer, U251): 34.08% | Growth Percent ([1]; Colon Cancer, COLO 205): 67.03% | Growth Percent ([1]; Colon Cancer, HCC-2998): 96.47% | Growth Percent ([1]; Colon Cancer, HCT-116): 7.77% | Growth Percent ([1]; Colon Cancer, HT29): 12.95% | Growth Percent ([1]; Colon Cancer, KM12): 53.51% | Growth Percent ([1]; Colon Cancer, SW-620): 43.34% | Growth Percent ([1]; Leukemia, CCRF-CEM): 5.05% | Growth Percent ([1]; Leukemia, HL-60(TB)): 43.98% | Growth Percent ([1]; Leukemia, K-562): 8.20% | Growth Percent ([1]; Leukemia, MOLT-4): 4.15% | Growth Percent ([1]; Leukemia, RPMI-8226): 2.88% | Growth Percent ([1]; Leukemia, SR): 16.86% | Growth Percent ([1]; Melanoma, LOX IMVI): 34.82% | Growth Percent ([1]; Melanoma, M14): 83.90% | Growth Percent ([1]; Melanoma, MALME-3M): 76.83% | Growth Percent ([1]; Melanoma, MDA-MB-435): 77.59% | Growth Percent ([1]; Melanoma, SK-MEL-2): 61.81% | Growth Percent ([1]; Melanoma, SK-MEL-5): 95.89% | Growth Percent ([1]; Melanoma, SK-MEL-28): 65.29% | Growth Percent ([1]; Melanoma, UACC-62): 63.42% | Growth Percent ([1]; Melanoma, UACC-257): 84.04% | Growth Percent [1, 2]: 67.03% | Growth Percent [1, 3]: 78.41% | Growth Percent [1, 4]: 80.02% | Growth Percent [1, 5]: 74.98% | Growth Percent [1, 6]: 75.47% | Growth Percent [1, 7]: 74.91% | Growth Percent [1, 8]: 77.29% | Growth Percent [1, 9]: 53.27% | Growth Percent ([1]; Ovarian Cancer, IGROV1): 93.62% | Growth Percent ([1]; Ovarian Cancer, NCI/ADR-RES): 81.59% | Growth Percent ([1]; Ovarian Cancer, OVCAR-3): 37.42% | Growth Percent ([1]; Ovarian Cancer, OVCAR-4): 63.99% | Growth Percent ([1]; Ovarian Cancer, OVCAR-5): 91.93% | Growth Percent ([1]; Ovarian Cancer, OVCAR-8): 66.51% | Growth Percent ([1]; Ovarian Cancer, SK-OV-3): 69.90% | Growth Percent ([1]; Prostate Cancer, DU-145): 66.11% | Growth Percent ([1]; Prostate Cancer, PC-3): 38.59% | Growth Percent ([1]; Renal Cancer, 786-0): 30.50% | Growth Percent ([1]; Renal Cancer, A498): 75.00% | Growth Percent ([1]; Renal Cancer, ACHN): 71.59% | Growth Percent ([1]; Renal Cancer, CAKI-1): 60.44% | Growth Percent ([1]; Renal Cancer, RXF 393): −32.25% | Growth Percent ([1]; Renal Cancer, SN12C): 71.17% | Growth Percent ([1]; Renal Cancer, TK-10): 98.20% | Growth Percent ([1]; Renal Cancer, UO-31): 54.33% | Growth Percent (SF-539): −5.40%
